# According to ChEMBL document CHEMBL1145498, “A systematic interaction map of validated kinase inhibitors with Ser/Thr kinases” (Proc Natl Acad Sci U S A, 2007):
# How the values were obtained:
# [1] = biological target: Calcium/calmodulin-dependent protein kinase type 1G (Homo sapiens) (UniProt Q96NX5)
# [2] = biological target: Calcium/calmodulin-dependent protein kinase type II subunit alpha (Homo sapiens) (UniProt Q9UQM7)
# [3] = biological target: Calcium/calmodulin-dependent protein kinase type II subunit delta (Homo sapiens) (UniProt Q13557)
# Chain of Calcium/calmodulin-dependent protein kinase type II subunit delta (Homo sapiens) (Q13557 whole entry): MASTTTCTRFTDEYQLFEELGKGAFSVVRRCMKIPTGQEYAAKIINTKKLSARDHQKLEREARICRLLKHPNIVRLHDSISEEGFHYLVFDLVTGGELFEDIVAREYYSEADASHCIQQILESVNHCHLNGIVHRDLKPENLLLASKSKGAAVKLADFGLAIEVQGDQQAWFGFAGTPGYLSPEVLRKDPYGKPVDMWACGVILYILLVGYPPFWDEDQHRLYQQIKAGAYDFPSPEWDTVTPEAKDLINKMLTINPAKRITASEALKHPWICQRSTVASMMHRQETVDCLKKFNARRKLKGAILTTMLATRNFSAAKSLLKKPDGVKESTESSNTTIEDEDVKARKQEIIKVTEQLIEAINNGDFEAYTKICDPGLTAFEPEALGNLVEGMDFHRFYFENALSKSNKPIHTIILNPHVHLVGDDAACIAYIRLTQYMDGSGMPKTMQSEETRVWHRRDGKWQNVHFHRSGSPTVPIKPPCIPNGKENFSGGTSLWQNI
# [4] = biological target: Calcium/calmodulin-dependent protein kinase type II subunit gamma (Homo sapiens) (UniProt Q13555)
# Chain of Calcium/calmodulin-dependent protein kinase type II subunit gamma (Homo sapiens) (Q13555 whole entry): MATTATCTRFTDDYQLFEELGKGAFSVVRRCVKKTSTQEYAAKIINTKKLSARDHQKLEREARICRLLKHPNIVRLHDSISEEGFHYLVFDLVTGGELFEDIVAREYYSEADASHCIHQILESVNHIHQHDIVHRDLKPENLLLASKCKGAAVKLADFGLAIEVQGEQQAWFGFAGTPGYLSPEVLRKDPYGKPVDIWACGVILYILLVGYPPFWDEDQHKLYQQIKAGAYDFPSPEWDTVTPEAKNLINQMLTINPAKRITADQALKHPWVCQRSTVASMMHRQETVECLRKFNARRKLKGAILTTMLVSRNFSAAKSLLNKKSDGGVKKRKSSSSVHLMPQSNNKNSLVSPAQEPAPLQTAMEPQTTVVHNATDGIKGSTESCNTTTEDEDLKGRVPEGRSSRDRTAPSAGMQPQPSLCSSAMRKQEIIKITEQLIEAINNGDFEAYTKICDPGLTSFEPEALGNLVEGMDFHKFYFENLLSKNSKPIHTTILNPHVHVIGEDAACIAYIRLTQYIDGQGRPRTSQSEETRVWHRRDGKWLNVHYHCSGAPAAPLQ
# [5] = biological target: T1, Calcium/calmodulin-dependent protein kinase type IV (Homo sapiens) (UniProt Q16566)
# T1 sequence (whole entry): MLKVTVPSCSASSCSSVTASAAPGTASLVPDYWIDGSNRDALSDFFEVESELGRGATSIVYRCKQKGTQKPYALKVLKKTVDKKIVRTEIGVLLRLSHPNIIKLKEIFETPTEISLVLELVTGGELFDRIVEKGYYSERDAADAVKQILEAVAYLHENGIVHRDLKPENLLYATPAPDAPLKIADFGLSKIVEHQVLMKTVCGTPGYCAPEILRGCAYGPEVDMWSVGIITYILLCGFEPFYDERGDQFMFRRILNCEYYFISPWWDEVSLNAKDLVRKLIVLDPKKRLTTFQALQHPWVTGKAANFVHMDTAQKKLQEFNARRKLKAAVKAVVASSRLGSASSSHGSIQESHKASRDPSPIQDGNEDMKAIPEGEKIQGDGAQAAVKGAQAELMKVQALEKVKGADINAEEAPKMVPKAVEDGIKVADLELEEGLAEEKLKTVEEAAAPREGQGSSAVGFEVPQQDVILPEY
# [6] = biological target: Serine/threonine-protein kinase Chk2 (Homo sapiens, UniProt O96017)
# Chain of Serine/threonine-protein kinase Chk2 (O96017 whole entry): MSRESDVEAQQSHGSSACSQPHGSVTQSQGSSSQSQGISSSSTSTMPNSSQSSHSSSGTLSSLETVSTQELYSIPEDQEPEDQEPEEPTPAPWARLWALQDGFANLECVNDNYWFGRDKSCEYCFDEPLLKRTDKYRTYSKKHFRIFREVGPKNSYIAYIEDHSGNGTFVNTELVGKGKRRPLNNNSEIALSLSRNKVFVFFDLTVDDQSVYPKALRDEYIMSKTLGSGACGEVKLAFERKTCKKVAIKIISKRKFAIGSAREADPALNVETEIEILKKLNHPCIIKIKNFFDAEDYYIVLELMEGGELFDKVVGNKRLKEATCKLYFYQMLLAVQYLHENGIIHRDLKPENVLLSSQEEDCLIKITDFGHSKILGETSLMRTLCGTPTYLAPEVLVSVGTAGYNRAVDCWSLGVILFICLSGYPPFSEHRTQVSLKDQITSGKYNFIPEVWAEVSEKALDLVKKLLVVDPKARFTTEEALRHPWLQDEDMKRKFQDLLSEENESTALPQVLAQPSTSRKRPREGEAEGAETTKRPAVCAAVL
# [7] = biological target: T2, Myotonin-protein kinase (Homo sapiens) (UniProt Q09013)
# T2 sequence (whole entry): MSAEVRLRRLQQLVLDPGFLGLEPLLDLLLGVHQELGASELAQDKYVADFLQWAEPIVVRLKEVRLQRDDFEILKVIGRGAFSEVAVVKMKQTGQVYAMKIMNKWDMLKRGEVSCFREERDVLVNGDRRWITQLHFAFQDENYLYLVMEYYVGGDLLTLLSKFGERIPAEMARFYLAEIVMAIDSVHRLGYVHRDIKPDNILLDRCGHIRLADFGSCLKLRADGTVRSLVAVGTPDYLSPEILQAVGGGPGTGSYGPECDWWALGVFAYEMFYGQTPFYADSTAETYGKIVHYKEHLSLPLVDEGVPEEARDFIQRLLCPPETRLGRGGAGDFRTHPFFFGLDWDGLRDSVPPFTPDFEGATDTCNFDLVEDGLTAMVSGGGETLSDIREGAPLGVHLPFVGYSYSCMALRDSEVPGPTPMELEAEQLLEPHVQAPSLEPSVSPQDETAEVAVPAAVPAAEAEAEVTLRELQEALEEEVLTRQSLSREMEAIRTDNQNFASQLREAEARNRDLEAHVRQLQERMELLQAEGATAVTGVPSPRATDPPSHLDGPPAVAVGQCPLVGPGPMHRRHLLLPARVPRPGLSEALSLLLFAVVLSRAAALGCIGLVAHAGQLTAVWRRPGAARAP
# [8] = biological target: Mitogen-activated protein kinase 11 (Homo sapiens, UniProt Q15759)
# Chain of Mitogen-activated protein kinase 11 (Q15759 whole entry): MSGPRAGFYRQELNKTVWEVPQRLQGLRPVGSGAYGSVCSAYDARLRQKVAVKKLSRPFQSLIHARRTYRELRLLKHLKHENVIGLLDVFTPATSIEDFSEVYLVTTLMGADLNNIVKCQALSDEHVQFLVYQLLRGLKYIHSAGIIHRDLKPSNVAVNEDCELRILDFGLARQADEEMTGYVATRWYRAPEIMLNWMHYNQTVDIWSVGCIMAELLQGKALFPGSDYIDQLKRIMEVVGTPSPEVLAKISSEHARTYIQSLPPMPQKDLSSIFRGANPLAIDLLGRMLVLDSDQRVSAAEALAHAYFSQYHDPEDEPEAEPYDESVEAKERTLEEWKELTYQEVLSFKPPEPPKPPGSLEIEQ
# [9] = biological target: T3, 3-phosphoinositide-dependent protein kinase 1 (Homo sapiens) (UniProt O15530)
# T3 sequence (whole entry): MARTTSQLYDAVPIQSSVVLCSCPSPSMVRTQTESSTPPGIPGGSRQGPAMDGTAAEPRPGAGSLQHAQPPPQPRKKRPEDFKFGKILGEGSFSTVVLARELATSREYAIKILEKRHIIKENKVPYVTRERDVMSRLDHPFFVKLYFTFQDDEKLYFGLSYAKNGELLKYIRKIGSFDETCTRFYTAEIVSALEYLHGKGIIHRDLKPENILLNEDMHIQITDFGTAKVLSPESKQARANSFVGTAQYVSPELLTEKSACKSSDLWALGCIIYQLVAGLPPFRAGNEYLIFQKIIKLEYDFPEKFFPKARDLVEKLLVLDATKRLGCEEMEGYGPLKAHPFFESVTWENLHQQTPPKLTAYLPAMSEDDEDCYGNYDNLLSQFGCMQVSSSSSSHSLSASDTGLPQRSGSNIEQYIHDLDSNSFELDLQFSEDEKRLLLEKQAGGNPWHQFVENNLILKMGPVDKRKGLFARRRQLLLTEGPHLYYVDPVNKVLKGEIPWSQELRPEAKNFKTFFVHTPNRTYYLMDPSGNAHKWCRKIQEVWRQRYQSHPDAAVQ
# [10] = biological target: Serine/threonine-protein kinase pim-2 (Homo sapiens, UniProt Q9P1W9)
# Chain of Serine/threonine-protein kinase pim-2 (Q9P1W9 whole entry, looked up): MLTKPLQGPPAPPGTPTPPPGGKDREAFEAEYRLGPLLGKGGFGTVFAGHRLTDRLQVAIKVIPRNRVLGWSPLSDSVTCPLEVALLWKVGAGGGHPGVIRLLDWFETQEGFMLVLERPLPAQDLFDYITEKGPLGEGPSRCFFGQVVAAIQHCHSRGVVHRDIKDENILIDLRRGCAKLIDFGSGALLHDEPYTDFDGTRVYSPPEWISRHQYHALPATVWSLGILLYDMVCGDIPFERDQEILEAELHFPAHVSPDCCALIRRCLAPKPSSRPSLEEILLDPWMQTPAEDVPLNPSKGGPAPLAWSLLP
# [11] = biological target: Serine/threonine-protein kinase pim-3 (Homo sapiens) (UniProt Q86V86)
# [12] = biological target: Serine/threonine-protein kinase PLK1 (Homo sapiens) (UniProt P53350)
# Chain of Serine/threonine-protein kinase PLK1 (Homo sapiens) (P53350 whole entry): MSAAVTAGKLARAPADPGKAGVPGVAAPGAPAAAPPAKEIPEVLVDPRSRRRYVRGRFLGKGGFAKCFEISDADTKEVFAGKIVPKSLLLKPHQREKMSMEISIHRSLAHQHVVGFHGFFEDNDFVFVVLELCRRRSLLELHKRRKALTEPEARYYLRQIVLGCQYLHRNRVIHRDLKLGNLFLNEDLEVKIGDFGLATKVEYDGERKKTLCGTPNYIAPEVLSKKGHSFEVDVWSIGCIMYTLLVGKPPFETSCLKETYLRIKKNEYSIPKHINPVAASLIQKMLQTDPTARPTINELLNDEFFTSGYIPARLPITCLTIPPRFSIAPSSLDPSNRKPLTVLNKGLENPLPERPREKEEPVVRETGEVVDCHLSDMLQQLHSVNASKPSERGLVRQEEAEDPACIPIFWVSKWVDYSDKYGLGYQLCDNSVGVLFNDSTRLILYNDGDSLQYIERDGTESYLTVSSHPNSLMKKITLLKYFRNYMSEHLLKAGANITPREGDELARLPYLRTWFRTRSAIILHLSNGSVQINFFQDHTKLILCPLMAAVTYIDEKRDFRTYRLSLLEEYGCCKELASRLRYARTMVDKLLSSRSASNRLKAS
# [13] = biological target: Serine/threonine-protein kinase RIO2 (Homo sapiens) (UniProt Q9BVS4)
# Chain of Serine/threonine-protein kinase RIO2 (Homo sapiens) (Q9BVS4 whole entry, looked up): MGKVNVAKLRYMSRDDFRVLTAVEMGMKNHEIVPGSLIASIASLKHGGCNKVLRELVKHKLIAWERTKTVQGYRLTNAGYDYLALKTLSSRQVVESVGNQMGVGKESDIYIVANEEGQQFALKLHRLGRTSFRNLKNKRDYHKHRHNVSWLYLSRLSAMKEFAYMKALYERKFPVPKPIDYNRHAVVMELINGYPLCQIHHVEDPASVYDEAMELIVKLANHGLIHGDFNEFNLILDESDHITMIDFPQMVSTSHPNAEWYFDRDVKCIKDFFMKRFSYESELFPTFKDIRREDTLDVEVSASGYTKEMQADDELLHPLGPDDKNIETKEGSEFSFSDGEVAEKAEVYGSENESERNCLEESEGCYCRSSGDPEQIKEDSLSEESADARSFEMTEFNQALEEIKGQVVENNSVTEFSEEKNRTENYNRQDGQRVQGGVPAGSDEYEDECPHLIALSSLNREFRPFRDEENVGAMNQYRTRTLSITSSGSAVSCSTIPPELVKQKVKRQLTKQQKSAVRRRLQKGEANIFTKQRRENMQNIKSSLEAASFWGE
# [14] = biological target: Ribosomal protein S6 kinase alpha-3 (Homo sapiens) (UniProt P51812)
# [15] = biological target: Serine/threonine-protein kinase 16 (Homo sapiens) (UniProt O75716)
# Chain of Serine/threonine-protein kinase 16 (Homo sapiens) (O75716 whole entry): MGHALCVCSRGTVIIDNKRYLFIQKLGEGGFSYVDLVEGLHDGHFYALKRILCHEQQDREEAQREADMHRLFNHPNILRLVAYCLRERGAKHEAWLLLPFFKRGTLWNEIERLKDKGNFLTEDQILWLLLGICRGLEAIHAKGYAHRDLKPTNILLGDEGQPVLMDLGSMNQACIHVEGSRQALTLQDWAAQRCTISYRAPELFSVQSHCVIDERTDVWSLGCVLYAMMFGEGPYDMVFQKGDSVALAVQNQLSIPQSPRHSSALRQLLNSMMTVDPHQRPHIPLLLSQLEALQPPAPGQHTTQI
# [16] = biological target: TRAF2 and NCK-interacting protein kinase (Homo sapiens) (UniProt Q9UKE5)
# [17] = biological target: T4, Lymphokine-activated killer T-cell-originated protein kinase (Homo sapiens) (UniProt Q96KB5)
# T4 sequence (whole entry): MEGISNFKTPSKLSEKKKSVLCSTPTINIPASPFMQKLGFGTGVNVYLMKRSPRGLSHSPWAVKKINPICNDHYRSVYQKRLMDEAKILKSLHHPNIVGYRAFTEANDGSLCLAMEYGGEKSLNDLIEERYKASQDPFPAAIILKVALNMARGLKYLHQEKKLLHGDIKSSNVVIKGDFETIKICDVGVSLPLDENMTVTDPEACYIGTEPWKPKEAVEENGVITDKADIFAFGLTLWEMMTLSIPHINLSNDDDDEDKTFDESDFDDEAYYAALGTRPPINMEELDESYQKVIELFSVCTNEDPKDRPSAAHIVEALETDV
# [18] = biological target: Serine/threonine-protein kinase 25 (Homo sapiens) (UniProt O00506)
# Chain of Serine/threonine-protein kinase 25 (Homo sapiens) (O00506 whole entry, looked up): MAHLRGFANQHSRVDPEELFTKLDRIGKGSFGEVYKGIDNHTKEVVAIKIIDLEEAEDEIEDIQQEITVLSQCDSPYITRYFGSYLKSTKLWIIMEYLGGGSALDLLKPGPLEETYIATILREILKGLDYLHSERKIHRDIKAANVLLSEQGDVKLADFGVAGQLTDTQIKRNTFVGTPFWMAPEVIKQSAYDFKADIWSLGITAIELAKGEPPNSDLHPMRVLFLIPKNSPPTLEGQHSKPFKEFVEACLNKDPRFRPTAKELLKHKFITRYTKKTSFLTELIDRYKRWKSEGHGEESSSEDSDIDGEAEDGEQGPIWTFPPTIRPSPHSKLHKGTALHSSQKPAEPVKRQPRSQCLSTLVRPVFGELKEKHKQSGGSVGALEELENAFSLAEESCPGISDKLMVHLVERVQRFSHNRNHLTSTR
# Chain of Calcium/calmodulin-dependent protein kinase type 1G (Homo sapiens) (Q96NX5 whole entry): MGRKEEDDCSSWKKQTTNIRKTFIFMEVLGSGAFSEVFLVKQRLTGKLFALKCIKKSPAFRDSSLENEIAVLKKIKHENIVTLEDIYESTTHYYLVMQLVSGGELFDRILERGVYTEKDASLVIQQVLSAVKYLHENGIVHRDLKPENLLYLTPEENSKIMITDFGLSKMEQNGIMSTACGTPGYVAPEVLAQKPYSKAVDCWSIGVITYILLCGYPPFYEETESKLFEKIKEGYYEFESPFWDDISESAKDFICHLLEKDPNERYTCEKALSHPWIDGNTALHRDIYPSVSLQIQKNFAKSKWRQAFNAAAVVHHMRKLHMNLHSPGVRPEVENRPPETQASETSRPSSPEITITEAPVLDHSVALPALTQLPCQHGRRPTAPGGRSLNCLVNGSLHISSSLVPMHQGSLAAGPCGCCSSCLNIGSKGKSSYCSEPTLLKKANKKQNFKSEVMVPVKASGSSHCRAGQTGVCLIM
SMILES,ΔTm [1],ΔTm [2],ΔTm [3],ΔTm [4],ΔTm [5],ΔTm [6],ΔTm [7],ΔTm [8],ΔTm [9],ΔTm [10],ΔTm [11],ΔTm [12],ΔTm [13],ΔTm [14],ΔTm [15],ΔTm [16],ΔTm [17],ΔTm [18]
N=C(N)NCCNS(=O)(=O)c1cccc2cnccc12,-0.4 °C,0.3 °C,0.1 °C,0 °C,-0.3 °C,0.2 °C,0.2 °C,-0.3 °C,-0.3 °C,0.6 °C,0.8 °C,0.3 °C,1.5 °C,0.4 °C,0.3 °C,0.1 °C,0.6 °C,-0.4 °C
Nc1n[nH]c2nc3ccccc3nc12 [QUINOXALINE1],0.2 °C,0.7 °C,-0.1 °C,0.4 °C,0.3 °C,0.5 °C,-0.1 °C,1 °C,0.5 °C,1.3 °C,1.3 °C,0.3 °C,0.4 °C,0.4 °C,1.1 °C,0.7 °C,0.5 °C,1.3 °C
Cn1cnc2c(NCc3ccccc3)nc(NCCO)nc21 [OLOMOUCINE],0 °C,-0.3 °C,-0.2 °C,0.1 °C,0.1 °C,-0.6 °C,-0.1 °C,-0.1 °C,0 °C,0.1 °C,-0.1 °C,-0.9 °C,0.3 °C,0.1 °C,0.7 °C,0.3 °C,0.4 °C,0 °C
O=S(=O)(c1cccc2c(Cl)cccc12)N1CCCNCC1,-0.1 °C,0.5 °C,0.5 °C,0.3 °C,0 °C,-0.1 °C,-0.2 °C,-0.3 °C,0.1 °C,1.7 °C,3.5 °C,0 °C,0.3 °C,0.5 °C,1.1 °C,0.1 °C,0 °C,0.2 °C
Cc1nc2sccn2c(=O)c1CCN1CCC(=C(c2ccccc2)c2ccc(F)cc2)CC1,0.4 °C,1.3 °C,-0.4 °C,1.1 °C,-0.2 °C,0.4 °C,0.1 °C,-0.7 °C,-0.8 °C,3.3 °C,6.1 °C,0.6 °C,4.5 °C,2.8 °C,3.1 °C,2.9 °C,-0.5 °C,0.3 °C
CCN(CC)CCNC(=O)c1c(C)[nH]c(/C=C2\C(=O)Nc3ccc(Cl)cc32)c1C [SU-11652],5.7 °C,5.7 °C,2.3 °C,6.2 °C,3.3 °C,10.3 °C,2.9 °C,-0.4 °C,-0.7 °C,2.3 °C,4.7 °C,0.5 °C,1.6 °C,8.5 °C,6 °C,8.3 °C,-0.4 °C,7.4 °C
O=c1c2ccccc2[nH]c(=S)n1CCN1CCC(=C(c2ccc(F)cc2)c2ccc(F)cc2)CC1 [DIACYLGLYCEROL KINASE INHIBITOR II],0.1 °C,-0.6 °C,-5.4 °C,-0.5 °C,0.2 °C,1.6 °C,-0.7 °C,1.2 °C,0.6 °C,1.4 °C,0.9 °C,0.6 °C,3.5 °C,1.2 °C,0.3 °C,0 °C,0.1 °C,1.5 °C
NCCNS(=O)(=O)c1cccc2c(Cl)cccc12,0 °C,0.7 °C,-0.1 °C,0.4 °C,-0.1 °C,0.2 °C,-1.1 °C,-0.2 °C,-0.2 °C,1.7 °C,3.2 °C,0.4 °C,0.2 °C,0.5 °C,0.2 °C,0 °C,-0.2 °C,-0.2 °C
C[S+]([O-])c1ccc(CSc2nc(-c3ccc(F)cc3)c(-c3ccncc3)[nH]2)cc1 (stereo not drawn),0 °C,-0.1 °C,0 °C,-0.1 °C,0 °C,-0.4 °C,0.5 °C,1.5 °C,-0.3 °C,0.4 °C,-0.4 °C,-0.2 °C,0.2 °C,0.1 °C,0.5 °C,0.1 °C,0.5 °C,0.6 °C
CC(=O)O/N=C1/C(=C2/C(=O)Nc3cc(Br)ccc32)Nc2ccccc21 [6-BROMOINDIRUBIN-3'-ACETOXIME],-0.6 °C,0.9 °C,-0.3 °C,2.4 °C,4.6 °C,0.1 °C,0.7 °C,1.1 °C,0.8 °C,-1.4 °C,1.1 °C,0.4 °C,1.7 °C,2.5 °C,1.7 °C,0.4 °C,-0.3 °C,1.1 °C
CC(C)(C)n1nc(-c2ccc(Cl)cc2)c2c(N)ncnc21,0 °C,0.5 °C,-0.1 °C,0.4 °C,0 °C,0.4 °C,0.6 °C,4.6 °C,-0.1 °C,0.2 °C,0.7 °C,0.9 °C,3.1 °C,2.1 °C,1 °C,1.4 °C,0.7 °C,1.2 °C
